Earlier results, collected in patent US9932302B1, “N-phenyl and N-benzyl enaminones and methods for using same” (University of Maryland Eastern Shore, priority 2013, dated 2018).

Experiments:
Settings in all cases: pre-clinical pharmacological profile
[1] = tested on: maximal electroshock seizure (MES)
[2] = tested on: subcutaneous Metrazol (sc Met) induced seizure
6 Hz psychomotor seizure = tested on: 6 Hz psychomotor seizure

Row | SMILES | MES activity profile of current AED [1] | scPTZ activity profile of current AED [2] | 6 Hz activity profile of current AED (6 Hz psychomotor seizure)
1 | O=C1NC(=O)C(c2ccccc2)(c2ccccc2)N1 [phenytoin] | active | active | –
2 | CC[C@@H](C(N)=O)N1CCCC1=O [levetiracetam] | – | – | active
